# From patent US20240284907A1, “NOVEL DERIVATIVES OF NON-CODED AMINO ACIDS AND THEIR USE AS HERBICIDES” (FortePhest LTD., priority 2021, published 2024)
# System: Seeds of Lettuce R. (Super-Jericho)
# Assay: Filter paper bioassay with lettuce seeds: germination and early plant development, Minimal Effective Concentration (MEC)
# Format: in vivo
# Details: lettuce seeds on filter paper, 0 to 1 mmol/l, visually assessed after 6 days
# Excerpt: Materials: Seeds of Lettuce R. (Super-Jericho, non-sterilized) were obtained from Ben Shahar Moshe Ltd., 99% purity. The test compounds listed in the Table 2 below were synthetized de novo or purchased from different vendors.
# Filter Paper Bioassays with Lettuce seeds: The protocol is following Bertin et al. 2009 and Movellan et al. 2014 with specified modifications as described below.
# Seeds were placed on Whatman no. 1 filter paper (Whatman, Middlesex, U.K.) in Petri dishes (10 seeds per plate) with 2.0 ml of aqueous solution of a test material in concentration ranged from 0 (control) to 1 mmol/l were placed in a tray tilted at 45[…]. The trays were kept in dark for 48 hours and then transferred to the growth chamber with 6/18 dark/light cycle for 4 days. Each experiment was performed at least with two repeats.
# The development of plants' radicle and shoots were visually assessed 6 days after the beginning of the test to determine Minimal Effective Concentration (MEC) of a test material. In the context of the invention, MEC is defined as the lowest concentration level of a test material that caused deviation (absence of germination or malformation of radicle or shoots) from the plant's development in the Control group.
row,Molecule,"Score (activity score of Minimal Effective Concentration, MEC)"
1,"O=C(O)c1cnc2sc(Cl)nc2c1 [compound 5683, 2-chloro[1,3]thiazolo[54-b]pyridine-6-carboxylic acid]",Moderate (0.1 mM)
2,"[(2-bromo-1,3-thiazol-4-yl)(difluoro)methyl]phosphonic acid [compound 5737]",Weak (Higher than 0.1 mM)
3,2-(6-bromopyrimidin-4-yl)ethan-1-amine [compound 6621],Strong (0.01 mM)
4,"2-bromo-N-[(2,5-dichlorothiophen-3-yl)methyl]pyridine-4-carboxamide [compound 5614]",Moderate (0.1 mM)
5,"2-carbamimidamido-N-[2-(2,5-dichlorothiophen-3-yl)ethyl]acetamide [compound 5726]",Moderate (0.1 mM)
6,"2-(2,6-dibromopyridin-4-yl)ethan-1-amine [compound 6612]",Moderate (0.1 mM)
7,"sodium 2-(2-chloro-1,3-thiazol-5-yl)-2,2-difluoroacetate [compound 5721]",Moderate (0.1 mM)
8,"ethyl 2-(2-chlorooxazol-4-yl)-2,2-difluoroacetate [compound 5783]",Moderate (0.1 mM)
9,"O=C(O)C(=O)c1ccc(Br)nc1 [compound 6609, 2-(6-bromopyridin-3-yl)-2-oxoacetic acid]",Weak (Higher than 0.1 mM)
10,"CCOC(=O)C(NC(C)=O)C(F)(F)c1nnc(CCl)s1 (stereo not drawn) [compound 598, ethyl3-[5-(chloromethyl)-1,3,4-thiadiazol-2-yl]-2-acetamido-3,3-difluoropropanoate]",Weak (Higher than 0.1 mM)
11,"2-(4-methylphenyl)-2-oxoethyl(2-chloro-1,3-thiazol-4-yl)acetate [compound 5795]",Moderate (0.1 mM)
12,"2-(2-chloro-1,3-benzothiazol-4-yl)-2,2-difluoroacetic acid [compound 5786]",Moderate (0.1 mM)
13,"O=C(O)C(F)(F)c1csc(-c2ccc(C(F)(F)F)cc2F)n1 [compound 5763, 2,2-difluoro-2-{2-[2-fluoro-4-(trifluoromethyl)phenyl]-1,3-thiazol-4-yl}acetic acid]",Moderate (0.1 mM)
14,"NC(Cc1cccc(Br)c1)C(=O)O (stereo not drawn) [compound 6669, 2-amino-3-(3-bromophenyl)propanoic acid]",Moderate (0.1 mM)
15,"O=C(O)CCc1cc(Cl)sc1Cl [compound 5606, 3-(2,5-dichlorothiophen-3-yl)propanoic acid]",Moderate (0.1 mM)
16,"N=C(NCCc1cc(Cl)sc1Cl)Nc1ccc(O)cc1 [compound 5766, N-[2-(2,5-dichlorothiophen-3-yl)ethyl]-N′-(4-hydroxyphenyl)guanidine]",Moderate (0.1 mM)
17,(2E)-3-(5-chlorothiophen-2-yl)prop-2-enoic acid [compound 5607],Moderate (0.1 mM)
18,"2-amino-3-(1H-1,2,4-triazol-1-yl)propanoic acid dihydrochloride [compound 5633, 2-amino-3-(1H-1,2,4-triazol-1-yl)propanoic acid dihydrochloride [HCl]]",Strong (0.01 mM)
19,"O=C(O)/C=C/c1ccnc(Br)c1 [compound 6606, (2E)-3-(2-bromopyridin-4-yl)prop-2-enoic acid]",Weak (Higher than 0.1 mM)
20,"O=C(Nc1ccnc(Br)c1)c1ccnc(Br)c1 [compound 6607, 2-bromo-N-(2-bromopyridin-4-yl)pyridine-4-carboxamide]",Strong (0.01 mM)
21,"NC(=O)Nc1ccnc(Br)c1 [compound 6602, (2-bromopyridin-4-yl)urea]",Weak (Higher than 0.1 mM)
